Source: patent US20200261440A1, “ZINC IONOPHORES AND USES THEREOF” (THE UNIVERSITY OF QUEENSLAND, priority 2017, published 2020)
Converted amounts (≈) assume the structure as drawn. “Also recorded” adds a separate entry of the source. Like-named read-outs stand apart in the source and are kept apart here.

How the values were obtained:
[1] = tested on: Methicillin-resistant Staphylococcus aureus (MRSA) strain USA300; experiment: MIC by broth microdilution (CLSI); settings: for antibiotic sensitivity of resistant strain: addition of sub-inhibitory PBT2+zinc(II) ions; for MIC: Staphylococcus aureus
[2] = tested on: Klebsiella pneumoniae strain MS6771; experiment: MIC by broth microdilution (CLSI); type: cell-based; settings: for MIC: Klebsiella pneumoniae, MS6771, Klebsiella pneumoniae
[3] = tested on: GAS strain HKU16 (Streptococcus pyogenes strain HKU16); experiment: microbe, parasite or virus in culture; type: cell-based; settings: GAS; RA-HQ-12: 3.5 μM
Description: J. Path. Bact. […] Proc. Soc.
MIC assays were carried out in biological triplicates.
M100 Performance Standards for Antimicrobial Susceptibility Testing, 27th Edition.

[4] = tested on: Streptococcus pneumoniae 23F; experiment: MIC by broth microdilution (CLSI); type: cell-based
[5] = CQ: 0 μM, Zinc: 0 μM, read-out: MIC
[6] = CQ: 64 μM, Zinc: 256 μM, read-out: MIC
[7] = PBT2: 0 μM, Zinc: 0 μM, read-out: MIC
[8] = PBT2: 64 μM, Zinc: 256 μM, read-out: MIC
[9] = Zinc: 256 μM (CQ panel), read-out: MIC
[10] = Zinc: 256 μM (PBT2 panel), read-out: MIC
[11] = MRSA|USA300, MRSA USA300, CQ: 0.75 μM, Zinc: 16 μM, +2% NaCl
[12] = MRSA|USA300, MRSA USA300, PBT2: 2 μM, Zinc: 25 μM, +2% NaCl

CC[C@H]1OC(=O)[C@H](C)[C@@H](O[C@H]2C[C@@](C)(OC)[C@@H](O)[C@H](C)O2)[C@H](C)[C@@H](O[C@@H]2O[C@H](C)C[C@H](N(C)C)[C@H]2O)[C@](C)(O)C[C@@H](C)C(=O)[C@H](C)[C@@H](O)[C@]1(C)O [Erythromycin, erythromycin]
antibiotic sensitivity of resistant strain ([1]; MRSA USA300): became sensitive; also recorded: reversed
MIC ([1]; MRSA USA300, CQ: 0 μM, Zinc: 0 μM): 64 µg/mL (≈ 87.2 µM)
MIC ([1]; MRSA USA300, CQ: 1 μM): 64 µg/mL (≈ 87.2 µM)
MIC ([1]; MRSA USA300, CQ: 1 μM, Zinc: 32 μM): 1 µg/mL (≈ 1.36 µM)
MIC ([1]; MRSA USA300, PBT2: 0 μM, Zinc: 0 μM): 64 µg/mL (≈ 87.2 µM)
MIC ([1]; MRSA USA300, PBT2: 2 μM): 32 µg/mL (≈ 43.6 µM)
MIC ([1]; MRSA USA300, PBT2: 2 μM, Zinc: 50 μM): 0.5 µg/mL (≈ 0.681 µM)
MIC ([1]; MRSA USA300, Zinc: 32 μM): 64 µg/mL (≈ 87.2 µM)
MIC ([1]; MRSA USA300, Zinc: 50 μM): 64 µg/mL (≈ 87.2 µM)
MIC ([1]; MRSA|USA300, MRSA, RA-HQ-12: 3.5 μM, oxacillin with 2% NaCl): 64 µg/mL (≈ 87.2 µM)

C[C@@H](O)[C@H]1C(=O)N2C(C(=O)O)=C(S[C@@H]3CN[C@H](C(=O)N(C)C)C3)[C@H](C)[C@H]12 [Meropenem, meropenem]
MIC [2, 5]: 64 µg/mL (≈ 167 µM)
MIC [2, 6]: 8 to 16 µg/mL (≈ 20.9 to 41.7 µM)
MIC ([2]; CQ: 64 μM, read-out: MIC): 8 to 16 µg/mL (≈ 20.9 to 41.7 µM)
MIC [2, 7]: 64 µg/mL (≈ 167 µM)
MIC [2, 8]: 16 µg/mL (≈ 41.7 µM)
MIC ([2]; PBT2: 64 μM, read-out: MIC): 32 µg/mL (≈ 83.4 µM)
MIC [2, 9]: 16 to 32 µg/mL (≈ 41.7 to 83.4 µM)
MIC [2, 10]: 16 to 32 µg/mL (≈ 41.7 to 83.4 µM)

COc1cccc(OC)c1C(=O)N[C@@H]1C(=O)N2[C@@H]1SC(C)(C)[C@@H]2C(=O)O [Methicillin, methicillin]
MIC ([1]; MRSA USA300, CQ: 0 μM, Zinc: 0 μM, +2% NaCl): > 128 µg/mL
MIC ([1]; MRSA USA300, CQ: 0.75 μM, +2% NaCl): > 128 µg/mL
MIC ([1]; MRSA USA300, PBT2: 2 μM, +2% NaCl): > 128 µg/mL
MIC ([1]; MRSA USA300, Zinc: 16 μM, +2% NaCl): > 128 µg/mL
MIC ([1]; MRSA USA300, Zinc: 25 μM, +2% NaCl): > 128 µg/mL
MIC [1, 11]: > 128 µg/mL
MIC ([1]; MRSA|USA300, MRSA USA300, PBT2: 0 μM, Zinc: 0 μM, +2% NaCl): > 128 µg/mL
MIC [1, 12]: > 128 µg/mL

Cc1onc(-c2ccccc2)c1C(=O)N[C@@H]1C(=O)N2[C@@H]1SC(C)(C)[C@@H]2C(=O)O [Oxacillin, oxacillin]
antibiotic sensitivity of resistant strain ([1]; MRSA USA300): became sensitive
MIC [1, 11]: 0.5 to 1 µg/mL (≈ 1.25 to 2.49 µM)
MIC [1, 12]: 1 to 2 µg/mL (≈ 2.49 to 4.98 µM)
MIC [3]: 0.125 µg/mL (≈ 0.311 µM)

CN(C)c1cc(NC(=O)CNC(C)(C)C)c(O)c2c1C[C@H]1C[C@H]3[C@H](N(C)C)C(O)=C(C(N)=O)C(=O)[C@@]3(O)C(O)=C1C2=O [Tigecycline, tigecycline]
antibiotic sensitivity of resistant strain ([2]; Klebsiella pneumoniae MS6771, addition of sub-inhibitory PBT2+zinc(II) ions): became sensitive
MIC ([2]; CQ: 0 μM, Zinc: 0 μM): 4 µg/mL (≈ 6.83 µM)
MIC ([2]; CQ: 64 μM): 4 µg/mL (≈ 6.83 µM)
MIC ([2]; CQ: 64 μM, Zinc: 256 μM): 4 µg/mL (≈ 6.83 µM)
MIC ([2]; PBT2: 0 μM, Zinc: 0 μM): 4 µg/mL (≈ 6.83 µM)
MIC ([2]; PBT2: 64 μM): 2 µg/mL (≈ 3.41 µM)
MIC ([2]; PBT2: 64 μM, Zinc: 256 μM): 2 µg/mL (≈ 3.41 µM)
MIC ([2]; Zinc: 256 μM (CQ panel)): 4 µg/mL (≈ 6.83 µM)
MIC ([2]; Zinc: 256 μM (PBT2 panel)): 4 µg/mL (≈ 6.83 µM)

COc1cc(Cc2cnc(N)nc2N)cc(OC)c1OC [Trimethoprim, trimethoprim]
MIC [2, 5]: > 128 µg/mL
MIC [2, 6]: > 128 µg/mL
MIC ([2]; CQ: 64 μM, read-out: MIC): > 128 µg/mL
MIC [2, 7]: > 128 µg/mL
MIC [2, 8]: > 128 µg/mL
MIC ([2]; PBT2: 64 μM, read-out: MIC): > 128 µg/mL
MIC [2, 9]: > 128 µg/mL
MIC [2, 10]: > 128 µg/mL

gentamicin
MIC ([4]; PBT2: 0 μM, Zinc: 0 μM): 64 µg/mL
MIC ([4]; PBT2: 8 μM): 4 µg/mL
MIC ([4]; PBT2: 8 μM, Zinc: 32 μM): 1 µg/mL
MIC ([4]; Zinc: 32 μM): 64 µg/mL
